Source: ChEMBL document CHEMBL1124973 (J Med Chem, 1990)

Columns and labels:
[1] = pKa value was measured; format: physicochemical
[2] = target: T1, Muscarinic acetylcholine receptor (Rattus norvegicus) (UniProt P08482+P08483+P08485+P08911+P10980)
Description: In vitro binding affinity against muscarinic acetylcholine receptor from rat cortical homogenates using [3H]N-methylscopolamine as radioligand

[3] = target: T1, Muscarinic acetylcholine receptor (Rattus norvegicus); remark: listed apart in the source
Description: In vitro binding affinity against muscarinic acetylcholine receptor from rat cortical homogenates using [3H]oxotremorine-M radioligand

[4] = target: T1, Muscarinic acetylcholine receptor (Rattus norvegicus); experiment: The selectivity ratio of Kapp of NMS/OXO -M; format: protein assay

pKa [1]	Ratio [4]	Structure (SMILES)	K app [2] [µM]	K app [3] [µM]
5.6		Cc1noc(CN(C)C)n1	> 50	3.3
		CN1CCC=C(c2nc(N)no2)C1	2.8	0.0026
6.2	> 5.5	CN1CCNC(c2nc(N)no2)C1 (stereo not given)	> 50	9.1
		Cc1noc(C2CCCN(C)C2)n1 (stereo not given)	54	0.43
6.2	> 6.6	Cc1noc(C2CN(C)CCN2)n1 (stereo not given)	> 50	7.6
7.1		Cc1noc(C2CNCCN2)n1 (stereo not given)	> 50	0.64
7.1	> 100	Nc1noc(C2CNCCN2)n1 (stereo not given)	> 50	0.45
		Cc1noc(C2=CCCN(C)C2)n1	2.1	0.0054
		CN1CCCC(c2nc(N)no2)C1 (stereo not given)	53	0.24
		Nc1noc(C2CCNC2)n1 (stereo not given)	21	0.04
		Nc1noc(C2CN3CCC2CC3)n1 (stereo not given)	0.6	0.00047
		Cc1noc(C2=CCCNC2)n1	2.4	0.0016
6		CN1CCN(C)C(c2nc(N)no2)C1 (stereo not given)	> 50	> 14
		Cc1noc(C[N+](C)(C)C)n1	3.6	0.0014
		Nc1noc(C2CN3CCCC2C3)n1 (stereo in doubt; 17b)	1.8	0.003
		Cc1noc(C2CN3CCC2C3)n1 (stereo in doubt; 15a)	0.1	9e-05
		Nc1noc(C2CN3CCCC2C3)n1 (stereo in doubt; 17a)	0.77	0.00067
		CN1CCC(c2nc(N)no2)C1 (stereo not given)	17	0.01
		Cc1noc(C2CC3CCC2N(C)C3)n1 (stereo in doubt; 23a)	8.9	0.3
		Cc1noc(C2CN3CCC2C3)n1 (stereo in doubt; 15b)	3.6	0.0021
		Cc1noc(C2CC3CCC2NC3)n1 (stereo in doubt; 22a)	1.1	0.0032
		Nc1noc(C2CN3CCC2C3)n1 (stereo in doubt; 16a)	0.031	< 4.3e-05
		Cc1noc(C2CN3CCC2CC3)n1 (stereo not given)	0.44	0.00096
		Nc1noc(C2CN3CCC2C3)n1 (stereo in doubt; 16b)	1.6	0.0015
		Nc1noc(C2=CCCNC2)n1	3.3	0.0017
		Cc1noc(C2CCN(C)C2)n1 (stereo not given)	27	0.024
		Cc1noc(C2CCCCN(C)C2)n1 (stereo not given)	18	0.73
		C[N+](C)(C)CCOC(N)=O	22	0.0049
		Cc1noc(C2CC3CCC2N(C)C3)n1 (stereo in doubt; 23b)	29	0.95
		Cc1noc(C2CC3CCC2NC3)n1 (stereo in doubt; 22b)	5.2	0.0025

Structure (SMILES)	pKa [1]	Ratio [4]	K app [2] [µM]	K app [3] [µM]
Nc1noc(C2CN3CCN2CC3)n1 (stereo not given)	6.3		> 50	0.13
Cc1noc(C2CN3CCN2CC3)n1 (stereo not given)	6		36	0.44
